Drawing on PubChem BioAssay AID322 (DTP/NCI, 2004), this text covers T/C for four compounds.

The experiment has as its system CD2F1 mice, P388/ADR leukemia ip, median survival T/C. The experiment in a line: NCI In Vivo Anticancer Drug Screen. Data for tumor model P388 Leukemia resistant to Adriamycin; NSC 123127, Developed at Scr 08 (intraperitoneal) in CD2F1 (CDF1) mice. The following applies: endpoint: median survival time, higher = longer survival. The protocol: The antitumor activity of compounds was measured in mice bearing transplantable tumors. Survival or tumor size were measured and the results are expressed as the measurement made in the treated group (T) divided by the measurement made in the vehicle treated control group (C). The tumor model used in this assay is P388 Leukemia resistant to Adriamycin; NSC 123127, Developed at Scr 08 (intraperitoneal) in CD2F1 (CDF1) mice

Several values for one entry are separate records, joined by “and”; a condition that tells them apart may be missing. Equal values may be shown once. Toxic doses and inconclusive results are not listed.

For the compound `CC1=C(C(N)=O)C(c2ccccc2)NC(=S)N1` (configuration not stated), the T/C was 99 % of control (dose: 3.12 mg/kg/injection, schedule: Q01DX005 (ip), vehicle: Klucel (hydroxypropylcellulose) (HPC)); 101 % of control (dose: 6.25 mg/kg/injection, schedule: Q01DX005 (ip), vehicle: Klucel (hydroxypropylcellulose) (HPC)); 98 % of control (dose: 12.5 mg/kg/injection, schedule: Q01DX005 (ip), vehicle: Klucel (hydroxypropylcellulose) (HPC)); 96 % of control and 107 % of control (dose: 25.0 mg/kg/injection, schedule: Q01DX005 (ip), vehicle: Klucel (hydroxypropylcellulose) (HPC)); 96 % of control (dose: 50.0 mg/kg/injection, schedule: Q01DX005 (ip), vehicle: Klucel (hydroxypropylcellulose) (HPC)).

As for `O=C1CN(CCN2CC(=O)N(CN3CCOCC3)C(=O)C2)CC(=O)N1CN1CCOCC1`, the T/C (dose: 12.5 mg/kg/injection, schedule: Q01DX005 (ip), vehicle: water) is 107 % of control; the T/C (dose: 25.0 mg/kg/injection, schedule: Q01DX005 (ip), vehicle: water) was 105 % of control; the T/C (dose: 50.0 mg/kg/injection, schedule: Q01DX005 (ip), vehicle: water) was 96 % of control; the T/C (dose: 100.0 mg/kg/injection, schedule: Q01DX005 (ip), vehicle: water) was 100 % of control.

Take `COc1cccc2c1C(=O)c1c(O)c3c(c(O)c1C2=O)CC(O)(C(=O)CO)CC3OC1CC(N)C(I)C(C)O1` (configuration not stated): the T/C is 98 % of control (dose: 2.2 mg/kg/injection, schedule: Q01DX001 (ip), vehicle: saline); 99 % of control (dose: 3.3 mg/kg/injection, schedule: Q01DX001 (ip), vehicle: saline); 108 % of control and 117 % of control (dose: 5.0 mg/kg/injection, schedule: Q01DX001 (ip), vehicle: saline); 118 % of control (dose: 7.5 mg/kg/injection, schedule: Q01DX001 (ip), vehicle: saline); 150 % of control (dose: 25.2 mg/kg/injection, schedule: Q01DX001 (ip), vehicle: saline).

As for `CC(=O)N(C)c1ccc(Nc2cc(C)[nH]c3ccc4ncnc4c23)cc1`, the T/C by setting is: (dose: 30.0 mg/kg/injection, schedule: Q01DX005 (ip), vehicle: saline) 98 % of control; (dose: 44.0 mg/kg/injection, schedule: Q01DX005 (ip), vehicle: saline) 114 % of control; (dose: 100.0 mg/kg/injection, schedule: Q01DX005 (ip), vehicle: saline) 122 % of control.
